{"source": "patent US20080234306A1", "about": "“N-Oxides of 4,5-Epoxy-Morphinanium Analogs” (Progenics Pharmaceuticals, Inc., priority 2006, published 2008)", "key": {"human μ-receptor": {"biological_target": "human μ-receptor (Homo sapiens, UniProt P35372)", "sequence (P35372 whole entry)": "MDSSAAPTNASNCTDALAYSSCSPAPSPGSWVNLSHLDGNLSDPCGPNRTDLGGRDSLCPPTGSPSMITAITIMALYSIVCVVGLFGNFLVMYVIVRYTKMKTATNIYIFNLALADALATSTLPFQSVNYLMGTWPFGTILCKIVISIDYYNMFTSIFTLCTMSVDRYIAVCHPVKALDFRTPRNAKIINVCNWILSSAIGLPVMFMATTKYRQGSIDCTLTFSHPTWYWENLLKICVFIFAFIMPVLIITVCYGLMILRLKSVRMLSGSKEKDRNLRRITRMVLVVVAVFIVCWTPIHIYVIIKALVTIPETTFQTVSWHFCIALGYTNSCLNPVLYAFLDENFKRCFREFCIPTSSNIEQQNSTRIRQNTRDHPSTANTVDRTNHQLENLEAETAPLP", "assay": "human μ-receptor model (binding, Ki)", "conditions": "read-out: % Inhibition at 1 × 10^−5 M"}, "μ-opioid receptor [1]": {"biological_target": "T1, μ-opioid receptor (Cavia porcellus, UniProt A0ACM8Q262)", "T1 sequence (A0ACM8Q262 1-400)": "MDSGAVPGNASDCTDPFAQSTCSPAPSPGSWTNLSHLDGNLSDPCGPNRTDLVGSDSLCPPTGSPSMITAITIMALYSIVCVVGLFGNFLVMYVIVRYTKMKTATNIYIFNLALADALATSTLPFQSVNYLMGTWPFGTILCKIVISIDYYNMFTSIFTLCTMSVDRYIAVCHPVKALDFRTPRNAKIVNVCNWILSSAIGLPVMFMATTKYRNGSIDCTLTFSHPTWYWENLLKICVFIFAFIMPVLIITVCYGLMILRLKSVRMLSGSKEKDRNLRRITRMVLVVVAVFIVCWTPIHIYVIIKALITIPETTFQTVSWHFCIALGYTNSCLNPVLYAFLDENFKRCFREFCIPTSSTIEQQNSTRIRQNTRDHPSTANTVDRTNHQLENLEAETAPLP", "assay": "Evaluation of antagonist activity at the μ-opioid receptor, guinea pig ileum test (tissue model, responses to DAMGO)", "conditions": "for IC50: tissue model for antagonist activity", "protocol": "(§1) Evaluation for Agonist and Antagonist Activities at the […] Receptors in the Guinea Pig Ileum\n(§2) Agonist/antagonist activity at the μ-opioid receptor was determined using the well known guinea pig ileum test. Briefly, an a section of ileum was placed in a stabilized solution in a tensed state. Transducers were used to measure changes in tension upon electrical stimulation to the tissue before and after challenge with a potential agonist/antagonist Using a control, constriction inhibition, and constriction inhibition cancellation, may be measured."}, "μ-opioid receptor [2]": {"test_system": "T2, μ-opioid receptor", "T2 construct": "Responses to increasing concentrations of the compounds (% control response to DAMGO); other: compound 1.0E^−04 M; Responses to increasing concentrations of the compounds (% control response to DAMGO); other: compound 1.0E^−08 M; other: compound 3.0E^−08 M; Responses to increasing concentrations of the com", "assay": "Evaluation of agonist activity at the μ-opioid receptor, guinea pig ileum test", "protocol": "as §1, §2"}, "μ-opioid receptor [3]": {"biological_target": "T1, μ-opioid receptor", "assay": "Evaluation of agonist activity at the μ-opioid receptor, guinea pig ileum test", "protocol": "as §1, §2"}, "[4]": {"conditions": "guinea pig, read-out: Responses to DAMGO (1.0E−07 M) in the presence of increasing concentrations of the compounds (% control response)"}}, "data": [{"compound": "[O-][N+]1(CC2CC2)CC[C@]23c4c5ccc(O)c4O[C@H]2CCC[C@@]3(O)[C@H]1C5", "note": "(stereo partly drawn) [Compound C0023, 17-Cyclopropylmethyl-4,5α-epoxy-3,14-dihydroxymorphinan-N-oxide]", "values": [{"measurement": "inhibition at 10 µM", "setting": "human μ-receptor", "value": 101, "unit": "%"}]}, {"compound": "C=C1CC[C@@]2(O)[C@H]3Cc4ccc(O)c5c4[C@@]2(CC[N+]3([O-])CC2CC2)[C@H]1O5", "note": "(stereo partly drawn) [Compound C0002]", "values": [{"measurement": "inhibition at 10 µM", "setting": "human μ-receptor", "value": 94, "unit": "%"}, {"measurement": "IC50", "setting": "μ-opioid receptor [1]", "value": "> 100000", "unit": "nM"}]}, {"compound": "[O-][N+]1(CC2CC2)CC[C@]23c4c5ccc(O)c4O[C@H]2[C@@H](O)CC[C@@]3(OCCCc2ccccc2)[C@H]1C5", "note": "(stereo partly drawn)", "values": [{"measurement": "melting point", "value": "155 to 159", "unit": "°C"}]}, {"compound": "C=C1CC[C@@]2(OCCCc3ccccc3)[C@H]3Cc4ccc(O)c5c4[C@@]2(CC[N+]3([O-])CC2CC2)[C@H]1O5.O=C(O)C(F)(F)F", "note": "(stereo partly drawn)", "values": [{"measurement": "melting point", "value": "182 °C (dec.)"}]}, {"compound": "O=C1CC[C@@]2(O)[C@H]3Cc4ccc(O)c5c4[C@@]2(CC[N+]3([O-])CC2CC2)[C@H]1O5", "note": "(stereo partly drawn) [Compound C0001, (S)-17-Cyclopropylmethyl-4,5α-epoxy-3,14-hydroxy-morphinan-6-one N-oxide]", "values": [{"measurement": "inhibition at 10 µM", "setting": "human μ-receptor", "value": 96, "unit": "%"}, {"measurement": "Responses to increasing concentrations of the compounds (% control response to DAMGO)", "setting": "μ-opioid receptor [2]; compound 1.0E^−04 M", "value": 0, "unit": "%"}, {"measurement": "Responses to increasing concentrations of the compounds (% control response to DAMGO)", "setting": "μ-opioid receptor [2]; compound 1.0E^−05 M", "value": 0, "unit": "%"}, {"measurement": "Responses to increasing concentrations of the compounds (% control response to DAMGO)", "setting": "μ-opioid receptor [2]; compound 1.0E^−06 M", "value": 0, "unit": "%"}, {"measurement": "Responses to increasing concentrations of the compounds (% control response to DAMGO)", "setting": "μ-opioid receptor [2]; compound 1.0E^−07 M", "value": 0, "unit": "%"}, {"measurement": "Responses to increasing concentrations of the compounds (% control response to DAMGO)", "setting": "μ-opioid receptor [2]; compound 1.0E^−08 M", "value": 0, "unit": "%"}, {"measurement": "Responses to increasing concentrations of the compounds (% control response to DAMGO)", "setting": "μ-opioid receptor [2]; compound 3.0E^−05 M", "value": 0, "unit": "%"}, {"measurement": "Responses to increasing concentrations of the compounds (% control response to DAMGO)", "setting": "μ-opioid receptor [2]; compound 3.0E^−06 M", "value": 0, "unit": "%"}, {"measurement": "Responses to increasing concentrations of the compounds (% control response to DAMGO)", "setting": "μ-opioid receptor [2]; compound 3.0E^−07 M", "value": 0, "unit": "%"}, {"measurement": "Responses to increasing concentrations of the compounds (% control response to DAMGO)", "setting": "μ-opioid receptor [2]; compound 3.0E^−08 M", "value": 0, "unit": "%"}, {"measurement": "agonistic activity", "setting": "μ-opioid receptor [2]; concentration of 1.0×10^−4 M, versus DAMGO", "value": "No agonistic activity"}, {"measurement": "remaining activity at 0.01 µM", "setting": "μ-opioid receptor [1]; [4]", "value": 100, "unit": "%"}, {"measurement": "remaining activity at 0.03 µM", "setting": "μ-opioid receptor [1]; [4]", "value": 91, "unit": "%"}, {"measurement": "remaining activity at 0.1 µM", "setting": "μ-opioid receptor [1]; [4]", "value": 80, "unit": "%"}, {"measurement": "remaining activity at 0.3 µM", "setting": "μ-opioid receptor [1]; [4]", "value": 62, "unit": "%"}, {"measurement": "remaining activity at 1 µM", "setting": "μ-opioid receptor [1]; [4]", "value": 36, "unit": "%"}, {"measurement": "remaining activity at 3 µM", "setting": "μ-opioid receptor [1]; [4]", "value": 23, "unit": "%"}, {"measurement": "remaining activity at 10 µM", "setting": "μ-opioid receptor [1]; [4]", "value": 16, "unit": "%"}, {"measurement": "remaining activity at 30 µM", "setting": "μ-opioid receptor [1]; [4]", "value": 16, "unit": "%"}, {"measurement": "remaining activity at 100 µM", "setting": "μ-opioid receptor [1]; [4]", "value": 16, "unit": "%"}, {"measurement": "IC50", "setting": "μ-opioid receptor [1]", "value": 560, "unit": "nM"}]}, {"compound": "[O-][N+]1(CC2CC2)CC[C@]23c4c5ccc(O)c4O[C@H]2[C@@H](Cn2ccnc2)CC[C@@]3(O)[C@H]1C5", "note": "(stereo partly drawn) [Compound C0018, 17-Cyclopropylmethyl-4,5α-epoxy-3,14-dihydroxy-6α-(1H-imidazol-1-yl)methyl morphinan N-oxide]", "values": [{"measurement": "inhibition at 10 µM", "setting": "human μ-receptor", "value": 89, "unit": "%"}]}, {"compound": "[O-][N+]1(CC2CC2)CC[C@]23c4c5ccc(O)c4O[C@H]2[C@@H](CO)CC[C@@]3(O)[C@H]1C5", "note": "(stereo partly drawn) [Compound C0021, 17-cyclopropylmethyl-4,5α-epoxy-3,14-dihydroxy-6α-hydroxymethyl morphinan N-oxide]", "values": [{"measurement": "inhibition at 10 µM", "setting": "human μ-receptor", "value": 95, "unit": "%"}]}, {"compound": "Oc1ccc2c3c1O[C@H]1[C@@H](O)CC[C@@]4(O)[C@@H](C2)[N+](O)(CC2CC2)CC[C@]314", "note": "(stereo partly drawn) [Compound C0003, (S)-17-Cyclopropylmethyl-4,5α-epoxy-morphinan-3,6α,14-triol N-oxide]", "values": [{"measurement": "inhibition at 10 µM", "setting": "human μ-receptor", "value": 100, "unit": "%"}]}, {"compound": "C[C@@H](NC(=O)[C@@H](N)Cc1ccc(O)cc1)C(=O)NCC(=O)N(C)[C@@H](Cc1ccccc1)C(=O)NCCO", "note": "[DAMGO, D-Ala^2,N-Me-Phe^4,Gly^5-ol-enkephalin, reference compound]", "values": [{"measurement": "Response + Naloxone (1.0E^−07 M)", "setting": "μ-opioid receptor [3]; after highest compound concentration, + naloxone 1.0E^−07 M", "value": 4, "unit": "%"}, {"measurement": "activation at 1 µM", "setting": "μ-opioid receptor [3]; compound 1.0E^−06 M, read-out: Responses to increasing concentrations of the compounds (% control response to DAMGO)", "value": 103, "unit": "%"}, {"measurement": "activation at 0.1 µM", "setting": "μ-opioid receptor [3]; compound 1.0E^−07 M, read-out: Responses to increasing concentrations of the compounds (% control response to DAMGO)", "value": 96, "unit": "%"}, {"measurement": "activation at 0.01 µM", "setting": "μ-opioid receptor [3]; compound 1.0E^−08 M, read-out: Responses to increasing concentrations of the compounds (% control response to DAMGO)", "value": 57, "unit": "%"}, {"measurement": "activation at 0.001 µM", "setting": "μ-opioid receptor [3]; compound 1.0E−09 M, read-out: Responses to increasing concentrations of the compounds (% control response to DAMGO)", "value": 9, "unit": "%"}]}, {"compound": "CC1C[C@@]2(O)[C@H]3Cc4ccc(O)c5c4[C@@]2(CC[N+]3([O-])CC2CC2)[C@@H](O5)C1=O", "note": "(stereo partly drawn) [Compound C0030, (S)-17-Cyclopropylmethyl-4,5α-epoxy-3,14-dihydroxy-7-methyl-morphinan-6-one N-oxide]", "values": [{"measurement": "inhibition at 10 µM", "setting": "human μ-receptor", "value": 67, "unit": "%"}]}, {"compound": "O=C1CC[C@H]2[C@H]3Cc4ccc(O)c5c4[C@@]2(CC[N+]3([O-])CC2CC2)[C@H]1O5", "note": "(stereo partly drawn)", "values": [{"measurement": "melting point", "value": "209 to 211", "unit": "°C"}]}]}
